Data published in PMC9962224, “Novel Inhibitors of Acetyl- and Butyrylcholinesterase Derived from Benzohydrazides: Synthesis, Evaluation and Docking Study” (Pharmaceuticals, 2023).
Where two headings read alike, the source gives them in different places.

Assays:
[1] = biological target: T1, AChE (obtained from electric eel; EeAChE) (Electrophorus electricus, UniProt O42275); assay: biochemical; format: biochemical; details: for Selectivity BChE/AChE: SI = ratio of IC50 for BChE/IC50 for AChE, above 1 = stronger inhibition of AChE; for IC50: electric eel AChE, mean ± SD from three independent experiments
T1 construct: AChE (obtained from electric eel); purchased Merck (Prague, Czech Republic); host or cells: electric eel (natural source)
T1 sequence (O42275 24-633): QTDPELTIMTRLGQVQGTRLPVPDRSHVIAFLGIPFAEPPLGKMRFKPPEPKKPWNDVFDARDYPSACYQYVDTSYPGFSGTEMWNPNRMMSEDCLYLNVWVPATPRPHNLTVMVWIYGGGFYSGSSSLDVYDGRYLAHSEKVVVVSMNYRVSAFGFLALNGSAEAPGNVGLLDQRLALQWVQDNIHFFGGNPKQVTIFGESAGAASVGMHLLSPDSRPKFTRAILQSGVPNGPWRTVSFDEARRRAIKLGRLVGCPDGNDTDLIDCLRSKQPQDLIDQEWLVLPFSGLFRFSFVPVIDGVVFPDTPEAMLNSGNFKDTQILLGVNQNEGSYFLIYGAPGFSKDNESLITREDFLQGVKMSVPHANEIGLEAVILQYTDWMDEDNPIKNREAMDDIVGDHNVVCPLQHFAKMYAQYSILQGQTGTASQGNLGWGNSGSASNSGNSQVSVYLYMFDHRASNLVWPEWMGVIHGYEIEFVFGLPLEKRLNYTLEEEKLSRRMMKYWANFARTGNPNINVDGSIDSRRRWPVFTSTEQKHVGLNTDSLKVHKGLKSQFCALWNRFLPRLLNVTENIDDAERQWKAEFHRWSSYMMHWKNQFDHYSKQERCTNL
Source text: (§1) Hydrazinecarboxamides 1–3 were examined in vitro for their potential to inhibit the function of AChE (obtained from electric eel) and BChE from equine serum using Ellman’s spectrophotometric method (Table 2). The activities are expressed as IC50 values, i.e., concentrations leading to 50% inhibition of enzymatic activity. Based on the IC50 values for AChE and BChE, we calculated selectivity indexes (SI) that quantified the selectivity for each cholinesterase. SI is the ratio of IC50 for BChE/IC50 for AChE.
(§2) The enzyme activity in the final reaction mixture (2000 µL) was 0.2 U/mL, the concentration of ATCh (or BTCh) was 40 µM, and the concentration of DTNB was 100 µM for all reactions. The investigated derivatives were dissolved in DMSO and then diluted with demineralized water (conductivity 3 μS, equipment supplier BKG Water Treatment, Hradec Králové, Czech Republic) to a concentration of 1000 µM. Five different inhibitor concentrations were used for all tested compounds in the final reaction mixture. The final concentration of DMSO was 0.2%. All experiments were performed in triplicate. The average values of the reaction rate (v0-uninhibited reaction, vi-inhibited reaction) were used to construct the dependence of v0/vi on the concentration of inhibitors. IC50 values were calculated from obtained regression curve equations.
(§3) Acetylcholinesterase originating from electric eels (Electrophorus electricus L.; EeAChE) and butyrylcholinesterase obtained from equine serum (EqBChE) were used.

[2] = biological target: T2, BChE from equine serum (EqBChE) (Equus caballus, UniProt P81908); assay: biochemical; format: biochemical; details: equine serum BChE; mean ± SD from three independent experiments
T2 construct: BChE from equine serum; purchased Merck (Prague, Czech Republic); host or cells: equine serum (natural source)
T2 sequence (P81908 whole entry): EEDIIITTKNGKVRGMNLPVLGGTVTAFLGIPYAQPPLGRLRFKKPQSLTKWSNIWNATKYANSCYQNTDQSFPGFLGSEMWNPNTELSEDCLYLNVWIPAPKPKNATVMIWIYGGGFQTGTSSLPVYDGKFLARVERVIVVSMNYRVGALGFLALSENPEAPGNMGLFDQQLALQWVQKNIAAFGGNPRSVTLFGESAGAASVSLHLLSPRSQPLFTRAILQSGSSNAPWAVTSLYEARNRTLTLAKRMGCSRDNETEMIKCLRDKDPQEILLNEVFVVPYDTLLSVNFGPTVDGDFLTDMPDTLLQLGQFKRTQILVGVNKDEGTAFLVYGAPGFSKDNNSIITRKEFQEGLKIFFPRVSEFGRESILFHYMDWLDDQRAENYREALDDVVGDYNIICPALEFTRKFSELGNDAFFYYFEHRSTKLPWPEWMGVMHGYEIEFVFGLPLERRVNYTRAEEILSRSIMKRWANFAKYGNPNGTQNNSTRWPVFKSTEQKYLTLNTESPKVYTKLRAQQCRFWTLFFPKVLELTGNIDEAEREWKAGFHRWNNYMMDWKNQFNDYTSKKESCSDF
Source text: as §1, §2, §3

[3] = biological target: T2, BChE from equine serum (EqBChE); details: parent N-alkyl-2-[4-(trifluoromethyl)benzoyl]hydrazine-1-carboxamides; cited from earlier work

Structure (SMILES)	Selectivity BChE/AChE [1]	IC50 [1] [µM]	IC50 [2] [µM]	IC50 [3] [µM]
CCCCCCCCCCCCCNC(=O)NNC(=O)c1cccc(C(F)(F)F)c1 [2b, N-Tridecyl-2-[3-(trifluoromethyl)benzoyl]hydrazine-1-carboxamide]	4.6	63.9 ± 0.83	292 ± 10.7	–
CNC(=O)NNC(=O)c1ccccc1C(F)(F)F [2c, N-Methyl-2-[2-(trifluoromethyl)benzoyl]hydrazine-1-carboxamide]	4.8	61.09 ± 0.03	296.2 ± 0.87	–
CCCCCCCCCCCCCNC(=O)NNC(=O)c1ccccc1C(F)(F)F [2d, N-Tridecyl-2-[2-(trifluoromethyl)benzoyl]hydrazine-1-carboxamide]	5.2	80.4 ± 2.1	422 ± 12.4	–
CNC(=O)NNC(=O)c1cccc([N+](=O)[O-])c1 [2e, N-Methyl-2-(3-nitrobenzoyl)hydrazine-1-carboxamide]	>7.4	67.4 ± 1.72	> 500	–
CCCCCCCCCCCCCNC(=O)NNC(=O)c1cccc([N+](=O)[O-])c1 [2f, 2-(3-Nitrobenzoyl)-N-tridecylhydrazine-1-carboxamide]	3.8	62.5 ± 1.79	236 ± 6.54	–
CNC(=O)NNC(=O)c1ccccc1[N+](=O)[O-] [2g, N-Methyl-2-(2-nitrobenzoyl)hydrazine-1-carboxamide]	3.0	64.3 ± 2.23	191 ± 10.1	–
CCCCCCCCCCCCCNC(=O)NNC(=O)c1ccccc1[N+](=O)[O-] [2h, 2-(2-Nitrobenzoyl)-N-tridecylhydrazine-1-carboxamide]	>9.1	54.9 ± 1.08	> 500	–
CNC(=O)NNC(=O)c1cccc(Br)c1 [2i, 2-(3-Bromobenzoyl)-N-methylhydrazine-1-carboxamide]	6.8	51.9 ± 2	354 ± 8.79	–
CCCCCCCCCCCCCNC(=O)NNC(=O)c1cccc(Br)c1 [2j, 2-(3-Bromobenzoyl)-N-tridecylhydrazine-1-carboxamide]	>11.3	44.34 ± 0.1	> 500	–
CNC(=O)NNC(=O)c1ccccc1Br [2k, 2-(2-Bromobenzoyl)-N-methylhydrazine-1-carboxamide]	>8.4	59.4 ± 1.83	> 500	–
CCCCCCCCCCCCCNC(=O)NNC(=O)c1ccccc1Br [2l, 2-(2-Bromobenzoyl)-N-tridecylhydrazine-1-carboxamide]	>9.3	53.99 ± 0.44	> 500	–
CNC(=O)NNC(=O)Cc1ccc(C(F)(F)F)cc1 [3a, N-Methyl-2-{2-[4-(trifluoromethyl)phenyl]acetyl}hydrazine-1-carboxamide]	1.9	68.51 ± 0.25	131 ± 9.7	–
CCCCCCCCCCCCCNC(=O)NNC(=O)Cc1ccc(C(F)(F)F)cc1 [3b, N-Tridecyl-2-{2-[4-(trifluoromethyl)phenyl]acetyl}hydrazine-1-carboxamide]	3.6	81.69 ± 0.45	292.9 ± 1.72	–
CNC(=O)NNS(=O)(=O)c1ccc(C(F)(F)F)cc1 [3c, N-Methyl-2-{[4-(trifluoromethyl)phenyl]sulfonyl}hydrazine-1-carboxamide]	–	71.1 ± 0.94	425 ± 13.2	–
CCCCCCCCCCCCCNC(=O)NNS(=O)(=O)c1ccc(C(F)(F)F)cc1 [3d, N-Tridecyl-2-{[4-(trifluoromethyl)phenyl]sulfonyl}hydrazine-1-carboxamide]	> 8.4	58.8 ± 0.96	339 ± 11.6	–
CCCCCCCCCCCCCNC(=O)NNC(=O)c1ccc(C(F)(F)F)cc1 [P2]	–	–	–	277 ± 10.3
